Experimental data from US20080299076A1, “Compunds and compositions that cause non-apoptotic cell death and uses thereof” (priority 2006, published 2008).
pIC50: −log10 of the molar value. Converted amounts (≈) assume the structure as drawn.

Experiments:
BJ-DRD cells = assay: Alamar Blue viability assay; type: cell-based; details: Homo sapiens; BJ-DRD (+RAS)
Excerpt: The engineered tumor cells make use of dominantly acting viral oncoproteins (LT and ST). These viral proteins are involved in cell transformation in specific forms of cancer, namely simian virus 40-induced malignant mesothelioma^134 and other viral oncogenes (E6 and E7) are involved in human papillomavirus-induced cervical carcinoma^135, and have been used to disrupt p53 and pRB function to transform cells in vitro and in vivo^136-138. The selectivity of erastin and the other compounds were further established in a cell line expressing dominant negative inhibitors of p53 and pRB not derived from viral elements. This cell line expresses (i) a truncated form of p53 (p53DD) that disrupts the tetramerization of endogenous p53, (ii) a CDK4^R24C mutant resistant to inhibition by p16INK4A and p15INK4B (the major negative regulators of CDK4) and (iii) cyclin D1. The effects of these RAS^V12-selective compounds at a range of concentrations were tested in these cells, BJ-TERT/p53^DD/CDK4^R24C/D1/ST/RAS^V12 (named BJ-DRD) cells. […] Thus, these compounds (including erastin) are effective in tumor cells transformed without viral proteins (other than ST).
Alamar Blue metabolism: 10% Alamar Blue was added to assay plates, which were then incubated for an additional 16 hours. Red fluorescence, resulting from reduction of Alamar Blue, was detected on a Victor3 platereader (ex: 530, em: 590).
Table 2. […]

CCRF-CEM parental cells = assay: Cell death in taxol/vinblastine resistance panel; type: cell-based; details: Homo sapiens
Method: (§1) In certain embodiments, the sensitivity to erastin, can be tested in cell lines that are resistant to taxol and vinblastine. The sensitivity of CCRF-CEM parental, and taxol and vinblastine resistant derivative cells to erastin was tested. […] Erastin analogues can be tested to ensure their effectiveness in inducing cell death in tumor cell line which are resistant to taxol or vinblastin, or other ant-tumor agents.

[1] = test system: taxol resistant CCRF-CEM derivative cells; assay: Cell death in taxol/vinblastine resistance panel; type: cell-based; details: Homo sapiens
Method: as §1

[2] = test system: vinblastine resistant CCRF-CEM derivative cells; assay: Cell death in taxol/vinblastine resistance panel; type: cell-based; details: Homo sapiens
Method: as §1

[3] = test system: BJ-TERT/LT/ST/RAS^V12 cells; assay: ATP detection; type: cell-based, human; details: erastin 20 μg/mL for 12 hours
Method: Cells were seeded in polystyrene 100×20 mm dishes (Falcon/#353003) in 10 mL of media. Three million cells were seeded in each dish for staurosporine (STS) and erastin treatment. Two million cells were seeded in each dish for no treatment and hydrogen peroxide treatment. Cells were treated with staurosporine (1 μM) for 12 hours, with H2O2 (16 mM) for 1.5 hours and erastin (20 μg/mL) for 12 hours. After the incubation, we counted cells using a CiCell analyzer (Beckman). 100,000 cells from each treatment were collected and washed twice in Hank's Salt Solution (10 ml). Next, we suspended cells in 200 μl of Nucleotide Releasing Buffer (BioVision/K254-200 ApoSensor Cell Viability Assay Kit) and incubated at room temperature for 10 minutes. To 10 μl of the above sample, we added 1 μl of ATP Minitoring Enzyme (BioVision/K254-200 ApoSensor Cell Viability Assay Kit) and read the ATP levels of the samples using a luminometer.
ATP levels were measured in BJERL cells treated with nothing (NT), treated with 1 μM of Staurosporine (STS) for 12 hours, with 16 mM of hydrogen peroxide for 1.5 hours and 20 μg/mL of erastin for 12 hours. ATP levels were normalized by number of viable cells.

BJELR cells = assay: Erastin sensitivity after upregulation of VDAC proteins by nucleofection; type: cell-based, human
Excerpt: Quantitative western blot showing the ratio of VDACs (top band, green) to eif4E (bottom band, red) (e). […] Green, untransfected BJELR cells; blue, mock nucleofected BJELR cells; red, VDAC2/3-nucleofected BJELR cells (f).
In certain aspects, the invention provides that erastin acts by a gain-of-function mechanism and that cells with more VDAC proteins are more sensitive to erastin. A gain-of-function mechanism operates in cells which have increased levels of topoisomerase I and are thus more sensitive to camptothecin^149. […] In other embodiments, cell lines can be stably transfected with vectors expressing VDAC1, 2, and/or 3. Thus, increased VDAC expression leads to erastin sensitivity which is consistent with a gain of function mechanism. Furthermore, a knockdown of VDACs causes erastin resistance.

Which results are given for `CCOc1ccccc1-n1c(C(C)N2CCN(C(=O)COc3ccc(Cl)cc3)CC2)nc2ccccc2c1=O` (stereo not drawn) [erastin, 2-(1-{4-[2-(4-Chloro-phenoxy)-acetyl]-piperazin-1-yl}-ethyl)-3-(2-ethoxy-phenyl)-3H-quinazolin-4-one]?
IC50 (BJ-DRD cells): 2.5 µg/mL (≈ 4.57 µM); pIC50 (CCRF-CEM parental cells): 4.96; pIC50 [1]: 5.15; pIC50 [2]: 5.10; ATP levels per viable cell [3]: decreased modestly; Increase in sensitivity to erastin (BJELR cells): about two to three-fold
